Measurements published in patent publication US20230227466A1, “SUBSTITUTED THIENOPYRIMIDINES THAT INTERACT WITH THE RAS SUPERFAMILY FOR THE TREATMENT OF CANCERS, INFLAMMATORY DISEASES, RASOPATHIES, AND FIBROTIC DISEASE” (SHY Therapeutics, LLC, priority 2020, published 2023).
pIC50: −log10 of the molar value. Read-outs that look alike come from different tables or passages of the source.

Experiments:
[1] = tested on: MIA-PaCa-2 pancreatic cancer cell line (KRAS G12C); assay: Cell proliferation assay (CellTiter 96 Aqueous One); type: cell-based; details: Homo sapiens; for IC50: MIA PaCa-2, MIA PaCa-2; for inhibition at 10 µM: MIA PaCa-2, read-out: % inh cell proliferation (10 μM) in MIA PaCa-2
Description: Cell lines: Human tumor-derived cell lines were purchased from American Type Culture Collection. Human tumor-derived pancreatic cancer cell line MIA-PACA2 (having a KRAS G12C mutation) and Panc-1 (having a KRAS G12D mutation), and Human non-small cell lung cancer (NSCLC) cell line A549 (having a KRAS G12S mutation) were grown in complete DMEM-High Glucose. Human colon cancer cell line SW-620 (having a KRAS G12V mutation) was grown in RPMI. All cell lines were supplemented with penicillin (100 U/mL), streptomycin (100 μg/mL), and 10% heat-inactivated FBS at 37° C. in a humidified incubator with 5% CO2.
Method: Cells were plated at 2000 to 5000 cells/well density in 96-wells plate and cultured overnight. Small molecules to be tested were added to the cells in the final concentration of 10 μM in the presence of 0.3% DMSO and 10% FBS, and incubated for 2-4 days at 37° C. in a humidified incubator with 5% CO2. For IC50 value determination, serial dilutions of compounds were added to cells under the same conditions.
Assay: At the end of the incubation period, cell viability was measured using the CellTiter 96® Aqueous One Solution Cell Proliferation Assay according to manufacturer specifications (Promega, Madison, Wis.). The percentage of small molecules inhibition of cellular proliferation was calculated from raw data.

[2] = target: T1, KRas G12D mutant (Homo sapiens, UniProt P01116, G12D); assay: Ras GTP binding domain inhibition assay (labeled-GTP competition, cell-free)
T1 construct: made in house
Text: (§1) This is a competitive binding assay. It involves the immobilization of a protein on solid phase, interaction with a small molecule drug candidate, and then competitive binding with a labeled native GTP or GDP ligand.
(§2) In theory, the assay is suitable for use with any GTP or GDP binding protein.
(§3) The following method was developed as specific assay for the following proteins: KRas wild type, KRas Q61H mutant, KRas G12C mutant, KRas G12D mutant, Rac-1, and Rho-A.
(§4) The small GTPases proteins: KRas wild type. KRas Q61H mutant, KRas G12C mutant, KRas G12D mutants, Rac-1, and Rho-A were expressed as His-tagged proteins. In addition, the Guanosine nucleotide Exchange Factor (GEF) Sos protein (residues 556-1049) was expressed as a His-tagged protein. In cells, the guanine nucleotide exchange factor Sos protein promotes activation of Ras proteins by stimulating an exchange of GDP for GTP. The inclusion of Sos to the Ras GTP binding domain inhibition assay may be considered as an alternative representation of physiological cellular conditions for evaluating the inhibitory activity of some of the tested small molecules.
(§5) For the assay, all purified small GTPases proteins were diluted in Buffer-I or Buffer-II to a final concentration of 10-30 μg/mL. 200 μL of each diluted protein was added to a nickel-coated 96-well plate and incubated overnight at 4° C. Then the protein solution was discarded and 200 μL of Buffer-I or Buffer-II was added to each well in the presence of 1% DMSO. Compounds to be tested were added to the protein-coated wells at final concentration of 20 μM, and incubated for 3 hours at room temperature with and without 10-30 μg/mL of Sos added to the final hour of the incubation. When performing IC50 measurements a serial dilution of all tested concentrations was added. Then Cy3-GTP or Cy5-GTP was added to each well to a final concentration of 100 nM. The labeled GTP was incubated for 45 minutes at room temperature. Following GTP incubation, wells were washed 3× in Buffer-I or Buffer-II and 200 μL of Buffer-I or Buffer-II was added to each well. Following washes, the amount of bound labeled-GTP was measured using a SpectraMax M3 (Molecular Devices).

[3] = target: T2, KRas Q61H mutant (Homo sapiens, UniProt P01116, Q61H); assay: as above
T2 construct: made in house
Text: as §1, §2, §3, §4, §5

[4] = target: T3, KRas G12C mutant (Homo sapiens, UniProt P01116, G12C); assay: as above
T3 construct: made in house
Text: as §1, §2, §3, §4, §5

[5] = target: Rac-1 (Homo sapiens, UniProt P63000); assay: as above; design: made in house
Text: as §1, §2, §3, §4, §5

[6] = target: KRas wild type (Homo sapiens, UniProt P01116); assay: as above; design: made in house
Text: as §1, §2, §3, §4, §5

[7] = target: Rho-A (Homo sapiens, UniProt P61586); assay: as above; design: made in house
Text: as §1, §2, §3, §4, §5

[8] = with SOS, read-out: KRas G12D mutant + SOS: % inh.
[9] = without SOS, read-out: KRas G12D mutant: % inh.
[10] = with SOS, read-out: KRas Q61H mutant + SOS: % inh.
[11] = without SOS, read-out: KRas Q61H mutant: % inh.
[12] = with SOS, read-out: KRas G12C mutant + SOS: % inh.
[13] = without SOS, read-out: KRas G12C mutant: % inh.
[14] = with SOS, read-out: Rac-1 + SOS: % inh.
[15] = without SOS, read-out: Rac-1: % inh.
[16] = with SOS, read-out: KRas wild type + SOS: % inh.
[17] = without SOS, read-out: KRas wild type: % inh.
[18] = with SOS, read-out: Rho-A + SOS: % inh.
[19] = without SOS, read-out: Rho-A: % inh.

IC50 [1] [µM]	inhibition at 20 µM [2, 8] [%]	inhibition at 20 µM [2, 9] [%]	inhibition at 20 µM [3, 10] [%]	inhibition at 20 µM [3, 11] [%]	pIC50 ([3]; with SOS)	inhibition at 20 µM [4, 12] [%]	inhibition at 20 µM [4, 13] [%]	inhibition at 20 µM [5, 14] [%]	inhibition at 20 µM [5, 15] [%]	inhibition at 20 µM [6, 16] [%]	inhibition at 20 µM [6, 17] [%]	inhibition at 20 µM [7, 18] [%]	inhibition at 20 µM [7, 19] [%]	Structure (SMILES)	inhibition at 10 µM [1] [%]
> 10	51 to 75	51 to 75	76 to 100	51 to 75	5.00 to 5.30	76 to 100	76 to 100	76 to 100	76 to 100	76 to 100	51 to 75	76 to 100	76 to 100	CO[C@H]1CC[C@@H](Nc2nc(-c3nccn3C)nc3sccc23)C1 (racemic) [Compound 10, Rac-N-((1R,3S)-3-methoxycyclopentyl)-2-(1-methyl-1H-imidazol-2-yl)thieno[2,3-d]pyrimidin-4-amine]	26 to 50
> 10	0	1 to 25	0	0	< 5.00	1 to 25	1 to 25	0	0	1 to 25	0	1 to 25	1 to 25	CO[C@H]1CC[C@@H](Nc2nc(C(N)=O)nc3sccc23)C1 (racemic) [Compound 11, Rac-4-(((1R,3S)-3-methoxycyclopentyl)amino)thieno[2,3-d]pyrimidine-2-carboxamide]	1 to 25
> 10	0	1 to 25	0	1 to 25	< 5.00	1 to 25	1 to 25	1 to 25	0	1 to 25	0	1 to 25	1 to 25	CO[C@H]1CC[C@@H](Nc2nc(C(=O)N3CCOCC3)nc3sccc23)C1 (racemic) [Compound 12, Rac-(4-(((1R,3S)-3-methoxycyclopentyl)amino)thieno[2,3-d]pyrimidin-2-yl)(morpholino)methanone]	1 to 25
> 10	0	1 to 25	0	0	< 5.00	0	0	0	1 to 25	1 to 25	0	1 to 25	1 to 25	CO[C@H]1CC[C@@H](Nc2nc(C(=O)NC(C)C)nc3sccc23)C1 (racemic) [Compound 13, Rac-N-isopropyl-4-(((1R,3S)-3-methoxycyclopentyl)amino)thieno[2,3-d]pyrimidine-2-carboxamide]	0
> 10	1 to 25	1 to 25	1 to 25	0	< 5.00	0	0	0	0	0	0	1 to 25	1 to 25	COCCNC(=O)c1nc(N[C@@H]2CC[C@H](OC)C2)c2ccsc2n1 (racemic) [Compound 14, rac-4-(((1R,3S)-3-Methoxycyclopentyl)amino)-N-(2-methoxyethyl)thieno[2,3-d]pyrimidine-2-carboxamide]	0
> 10	0	0	0	1 to 25	< 5.00	0	1 to 25	0	0	0	1 to 25	0	0	CO[C@H]1CC[C@@H](Nc2nc(C(=O)Nc3ccccc3)nc3sccc23)C1 (racemic) [Compound 15, rac-4-(((1R,3S)-3-Methoxycyclopentyl)amino)-N-phenylthieno[2,3-d]pyrimidine-2-carboxamide]	1 to 25
> 10	1 to 25	1 to 25	0	1 to 25	< 5.00	1 to 25	1 to 25	0	1 to 25	0	1 to 25	1 to 25	0	CO[C@H]1CC[C@@H](Nc2nc(C(=O)Nc3ccccn3)nc3sccc23)C1 (racemic) [Compound 16, rac-4-(((1R,3S)-3-Methoxycyclopentyl)amino)-N-(pyridin-2-yl)thieno[2,3-d]pyrimidine-2-carboxamide]	1 to 25
> 10	0	0	0	1 to 25	< 5.00	0	0	1 to 25	0	1 to 25	1 to 25	0	26 to 50	CO[C@H]1CC[C@@H](Nc2nc(C(N)=O)nc3sc(-c4ccn(C(C)C)n4)cc23)C1 (racemic) [Compound 17, Rac-6-(1-isopropyl-1H-pyrazol-3-yl)-4-(((1R,3S)-3-methoxycyclopentyl)amino)thieno[2,3-d]pyrimidine-2-carboxamide]	1 to 25
> 10	0	0	0	0		0	0	0	0	0	0	0	0	CO[C@H]1CC[C@@H](Nc2nc(C(=O)N3CCCC3)nc3sccc23)C1 (racemic) [Compound 25, Rac-(4-(((1R,3S)-3-Methoxycyclopentyl)amino)thieno[2,3-d]pyrimidin-2-yl)(pyrrolidin-1-yl)methanone]	1 to 25
